From US9012655B2, “Antimicrobial/adjuvant compounds and methods” (Denouamed, Inc., priority 2011, dated 2015)
Converted amounts (≈) assume the structure as drawn.

What was measured:
Test in all cases: MIC panel of challenge pathogens (CLSI)
Assay type in all cases: cell-based
[1] = tested on: Staphylococcus aureus NRS382; details: Staphylococcus aureus NRS382
Procedure: (§1) The inocula for each bacterial strain were prepared by picking 5-10 distinct colonies from the culture plates and suspending them in the appropriate broth as per Clinical and Laboratory Standards Institute (CLSI) guidelines M07-A8, M24-A or M11-A7 as appropriate. The inoculum was resuspended by vigorous shaking on a vortex mixer for 15 s. The turbidity was then adjusted to McFarland standard 0.5 ([…]). The inoculum was further diluted in the appropriate media for MIC tests to give a final inoculum in each well of 2-8×10^5 CFU/ml. MICs were tested in the appropriate broth in accordance with the appropriate CLSI guidelines.
(§2) A stock solution of each compound was prepared at a concentration of 1.28 g/L in DMSO. The stock was further diluted in the appropriate media to give a top starting concentration of 128 mg/L in the assay. 100 μL of the appropriate media, as per CLSI guidelines, was dispensed into each well in columns 2-12. 200 μL of the each compound solution (at 256 mg/L) was dispensed into each well in column 1. 100 μL aliquots were pipetted from column 1 wells and dispensed into column 2 with a multichannel pipette (±2% coefficient of variation) thus diluting two-fold. 100 μL samples were then pipetted from column 2 wells and dispensed into column 3. The process was repeated through to column 10. The final 100 μL of diluted drug from column 10 was then discarded. Row 11 acted as a positive control (no compound, but organisms added), Row 12 acted as a negative control (no compound, and no organisms added).
(§3) 100 μL of the appropriate inoculum suspension in the appropriate media, as per CLSI guidelines, was added to the appropriate wells. […] All plates were incubated in the dark under aerobic or anaerobic conditions at 30-37° C. for 24-48 hours, according to the appropriate CLSI guideline. Plates were read visually 24-48 hours post inoculation. Endpoints of 100% inhibition were determined (CLSI interpretation endpoints following visual examination).
(§4) MIC50, MIC80, and 100% inhibition results are reported below in μg/mL in the following Tables, indicating each compound tested against a given species and strain: […]

[2] = tested on: Staphylococcus aureus AUR59 7005; details: AUR597005, Staphylococcus aureus AUR59 7005
Procedure: as §1, §2, §3, §4

[3] = tested on: Staphylococcus aureus NRS1 (ATCC700699); details: Staphylococcus aureus NRS1 (ATCC700699)
Procedure: as §1, §2, §3, §4

[4] = tested on: Staphylococcus epidermidis NRS7; details: Staphylococcus epidermidis NRS7
Procedure: as §1, §2, §3, §4

[5] = tested on: Staphylococcus aureus NRS383; details: Staphylococcus aureus NRS383
Procedure: as §1, §2, §3, §4

[6] = tested on: Staphylococcus aureus ATCC43300; details: Staphylococcus aureus ATCC43300
Procedure: as §1, §2, §3, §4

[7] = tested on: Staphylococcus aureus NRS2 (ATCC700698); details: Staphylococcus aureus NRS2 (ATCC700698)
Procedure: as §1, §2, §3, §4

[8] = tested on: Staphylococcus aureus EUP MRSA002; details: EUPMRSA002, Staphylococcus aureus EUP MRSA002
Procedure: as §1, §2, §3, §4

[9] = tested on: Enterococcus faecalis ATCC51299; details: Enterococcus faecalis ATCC51299
Procedure: as §1, §2, §3, §4

[10] = tested on: Staphylococcus epidermidis NRS122; details: Staphylococcus epidermidis NRS122
Procedure: as §1, §2, §3, §4

[11] = tested on: Staphylococcus aureus AUR60 7005; details: AUR607005, Staphylococcus aureus AUR60 7005
Procedure: as §1, §2, §3, §4

[12] = tested on: Staphylococcus aureus AUR131 007035; details: AUR131007035, Staphylococcus aureus AUR131 007035
Procedure: as §1, §2, §3, §4

Bacillus cereus NCTC6349 = details: Bacillus cereus NCTC6349
Procedure: as §1, §2, §3, §4

[13] = tested on: Staphylococcus aureus EUP MRSA004; details: EUPMRSA004, Staphylococcus aureus EUP MRSA004
Procedure: as §1, §2, §3, §4

[14] = tested on: Staphylococcus aureus NRS384; details: Staphylococcus aureus NRS384
Procedure: as §1, §2, §3, §4

[15] = tested on: Staphylococcus aureus EUP SAU040; details: EUPSAU040, Staphylococcus aureus EUP SAU040
Procedure: as §1, §2, §3, §4

[16] = tested on: Enterococcus faecalis ATCC29212; details: Enterococcus faecalis ATCC29212
Procedure: as §1, §2, §3, §4

[17] = tested on: Enterococcus faecium ATCC700221; details: Enterococcus faecium ATCC700221
Procedure: as §1, §2, §3, §4

[18] = tested on: Staphylococcus aureus AUR58 7005; details: AUR587005, Staphylococcus aureus AUR58 7005
Procedure: as §1, §2, §3, §4

SMILES: Clc1ccc(-c2cc(-c3nnn[nH]3)sc2-c2ccc(Cl)cc2)cc1 [DNM0487, 5-(4,5-Bis(4-chlorophenyl)thiophen-2-yl)-1H-tetrazole]
- MIC ([1]; read-out: 100% inhibition): 1 µg/mL (≈ 2.68 µM)
- MIC50 ([1]; read-out: MIC50 (50%)): 1 µg/mL (≈ 2.68 µM)
- MIC80 ([1]; read-out: MIC80 (80%)): 1 µg/mL (≈ 2.68 µM)
- MIC ([2]; read-out: 100% inhibition): 1 µg/mL (≈ 2.68 µM)
- MIC50 ([2]; read-out: MIC50 (50%)): 1 µg/mL (≈ 2.68 µM)
- MIC80 ([2]; read-out: MIC80 (80%)): 1 µg/mL (≈ 2.68 µM)
- MIC ([3]; read-out: 100% inhibition): 0.5 µg/mL (≈ 1.34 µM)
- MIC50 ([3]; read-out: MIC50 (50%)): 0.25 µg/mL (≈ 0.67 µM)
- MIC80 ([3]; read-out: MIC80 (80%)): 0.5 µg/mL (≈ 1.34 µM)
- MIC ([4]; read-out: 100% inhibition): 1 µg/mL (≈ 2.68 µM)
- MIC50 ([4]; read-out: MIC50 (50%)): 0.5 µg/mL (≈ 1.34 µM)
- MIC80 ([4]; read-out: MIC80 (80%)): 1 µg/mL (≈ 2.68 µM)
- MIC ([5]; read-out: 100% inhibition): 1 µg/mL (≈ 2.68 µM)
- MIC50 ([5]; read-out: MIC50 (50%)): 1 µg/mL (≈ 2.68 µM)
- MIC80 ([5]; read-out: MIC80 (80%)): 1 µg/mL (≈ 2.68 µM)
- MIC ([6]; read-out: 100% inhibition): 1 µg/mL (≈ 2.68 µM)
- MIC50 ([6]; read-out: MIC50 (50%)): 1 µg/mL (≈ 2.68 µM)
- MIC80 ([6]; read-out: MIC80 (80%)): 1 µg/mL (≈ 2.68 µM)
- MIC ([7]; read-out: 100% inhibition): 2 µg/mL (≈ 5.36 µM)
- MIC50 ([7]; read-out: MIC50 (50%)): 1 µg/mL (≈ 2.68 µM)
- MIC80 ([7]; read-out: MIC80 (80%)): 2 µg/mL (≈ 5.36 µM)
- MIC ([8]; read-out: 100% inhibition): 2 µg/mL (≈ 5.36 µM)
- MIC50 ([8]; read-out: MIC50 (50%)): 1 µg/mL (≈ 2.68 µM)
- MIC80 ([8]; read-out: MIC80 (80%)): 2 µg/mL (≈ 5.36 µM)
- MIC ([9]; read-out: 100% inhibition): 2 µg/mL (≈ 5.36 µM)
- MIC50 ([9]; read-out: MIC50 (50%)): 1 µg/mL (≈ 2.68 µM)
- MIC80 ([9]; read-out: MIC80 (80%)): 2 µg/mL (≈ 5.36 µM)
- MIC ([10]; read-out: 100% inhibition): 4 µg/mL (≈ 10.7 µM)
- MIC50 ([10]; read-out: MIC50 (50%)): 4 µg/mL (≈ 10.7 µM)
- MIC80 ([10]; read-out: MIC80 (80%)): 4 µg/mL (≈ 10.7 µM)
- MIC ([11]; read-out: 100% inhibition): 1 µg/mL (≈ 2.68 µM)
- MIC50 ([11]; read-out: MIC50 (50%)): 1 µg/mL (≈ 2.68 µM)
- MIC80 ([11]; read-out: MIC80 (80%)): 1 µg/mL (≈ 2.68 µM)
- MIC ([12]; read-out: 100% inhibition): 1 µg/mL (≈ 2.68 µM)
- MIC50 ([12]; read-out: MIC50 (50%)): 1 µg/mL (≈ 2.68 µM)
- MIC80 ([12]; read-out: MIC80 (80%)): 1 µg/mL (≈ 2.68 µM)
- MIC (Bacillus cereus NCTC6349; read-out: 100% inhibition): 0.5 µg/mL (≈ 1.34 µM)
- MIC50 (Bacillus cereus NCTC6349; read-out: MIC50 (50%)): 0.5 µg/mL (≈ 1.34 µM)
- MIC80 (Bacillus cereus NCTC6349; read-out: MIC80 (80%)): 0.5 µg/mL (≈ 1.34 µM)
- MIC ([13]; read-out: 100% inhibition): 2 µg/mL (≈ 5.36 µM)
- MIC50 ([13]; read-out: MIC50 (50%)): 1 µg/mL (≈ 2.68 µM)
- MIC80 ([13]; read-out: MIC80 (80%)): 2 µg/mL (≈ 5.36 µM)
- MIC ([14]; read-out: 100% inhibition): 1 µg/mL (≈ 2.68 µM)
- MIC50 ([14]; read-out: MIC50 (50%)): 1 µg/mL (≈ 2.68 µM)
- MIC80 ([14]; read-out: MIC80 (80%)): 1 µg/mL (≈ 2.68 µM)
- MIC ([15]; read-out: 100% inhibition): 2 µg/mL (≈ 5.36 µM)
- MIC50 ([15]; read-out: MIC50 (50%)): 1 µg/mL (≈ 2.68 µM)
- MIC80 ([15]; read-out: MIC80 (80%)): 1 µg/mL (≈ 2.68 µM)
- MIC ([16]; read-out: 100% inhibition): 2 µg/mL (≈ 5.36 µM)
- MIC50 ([16]; read-out: MIC50 (50%)): 2 µg/mL (≈ 5.36 µM)
- MIC80 ([16]; read-out: MIC80 (80%)): 2 µg/mL (≈ 5.36 µM)
- MIC ([17]; read-out: 100% inhibition): 1 µg/mL (≈ 2.68 µM)
- MIC50 ([17]; read-out: MIC50 (50%)): 1 µg/mL (≈ 2.68 µM)
- MIC80 ([17]; read-out: MIC80 (80%)): 1 µg/mL (≈ 2.68 µM)
- MIC ([18]; read-out: 100% inhibition): 1 µg/mL (≈ 2.68 µM)
- MIC50 ([18]; read-out: MIC50 (50%)): 1 µg/mL (≈ 2.68 µM)
- MIC80 ([18]; read-out: MIC80 (80%)): 1 µg/mL (≈ 2.68 µM)
